Values quoted from earlier work, collected in US8420699B1, “Composition and methods of treatment using deionized and ozonated solution” (priority 2002, dated 2013).

Which results are given for `O=[O+][O-]` [ozone]?
half-life of ozone (at 68° F.): 45 min; concentrated effectiveness relative to initial value (in two hours after generation): 16 % of its initial value
